These are literature values, as cited in patent US20150080385A1, “OPHTHALMIC PHARMACEUTICAL COMPOSITION CONTAINING A CARBONIC ANHYDRASE INHIBITOR AND METHOD FOR THE PREPARATION THEREOF” (PHARMATHEN S.A., priority 2012, published 2015).

For the compound `CCN[C@H]1CN(CCCOC)S(=O)(=O)c2sc(S(N)(=O)=O)cc21` [Brinzolamide, (R)-4-ethylamino-3,4-dihydro-2-(3-methoxy) propyl-2H-thieno[3,2-e]-1,2-thiazine-6-sulfonamide 1, 1 dioxide], the “Solubility in alcohol and methanol” value (alcohol and methanol) was “slightly soluble”. Further, under “water”, the Solubility in water entry is “insoluble”.
